What follows are compounds tested on C9M-TF1 cells (assay: EC50 titration, Alamar Blue, suspension cells). Settings: Homo sapiens, 72 h.
Assay type: cell-based
Description: (§1) On the day of the assay compounds are used to prepare dilution series on Titration Plates which are plated at ten times their final screening concentration in 10 μl aliquots.
(§2) Suspension cells are split 24 hours prior to drug treatment in order to bring the cultures into the log phase of growth. On the day of the assay the cells are plated directly into the Titration Plates at the appropriate pre-determined seeding density (Table 1) in 90 μl volumes thus reducing the concentration of the compounds to their final test concentration. The plates are incubated for 72 hours at 37° C. and 5% CO2 after which time they are assayed by Alamar Blue.
(§3) The EC50 values are calculated using the values obtained from the Alamar Blue readout which are converted into a “Percentage of the Untreated Control” and using Graph Pad Prism these values are plotted against the logarithm of the test concentration. Using a non-linear regression analysis a sigmoidal dose-response curve is generated from which the EC50 is determined.
c1ccc(-c2cnn3c(NCc4ccccn4)ccnc23)cc1 [Compound 5] gave an EC50 of 16.6 µM.
For Fc1ccccc1-c1cnn2c(NCc3ccccn3)ccnc12 [Compound 6], the EC50 was 10 µM.
Work on CN(C)c1cccc(-c2cnn3c(NCc4ccccn4)ccnc23)c1 [Compound 7] yielded an EC50 of 20.4 µM.

These compounds were tested on FRAT2 overexpresing TF1 (FRAT2-C9M-TF1 cells) (assay: Primary high-throughput screen, Alamar Blue, suspension cells). Settings: Homo sapiens; compound at 10 μM, 72 h; minus GMCSF; read-out: percentage kill, FRAT2−.
Assay type: cell-based
Description: (§4) Daughter Plates containing 10 μl of a […] solution of test compound selected from among the candidate compounds stored at […] are thawed at room temperature. A 10 μL volume of 0.1% DMSO in PBS is added to all wells of Column 12 and the wells in Row A-F of Column 1. A 10 μl volume of a pre-determined concentration of the P13-Kinase inhibitor LY294002 is added to wells in Row G and H of Column 1. A 90 μl volume of the appropriate cell culture medium is then added to each well and mixed by repeated aspiration/dispensing. The compounds are at a final test concentration of 10 μM.
(§5) Once the Daughter Plates have been prepared the media is removed from all wells of the cell culture plate using an 8-Channel Vacuum Aspirator. The contents of the Daughter Plates are then transferred to the appropriate wells of their relevant Test Plates and the Test Plates are incubated for 72 h at 37° C. and 5% CO2. At the end of this period Test Plates are assayed by Alamar Blue. A 10 μl volume of Alamar Blue is added to all wells of the Test Plate. The Test Plates are incubated for […] at 37° C. and 5% CO2 and finally read using the BioTek SYNERGY plate reader (Excitation 530125 nm-Emission 590135 nm). Percentage inhibition is determined using Microsoft Excel spreadsheet calculations.
(§6) Suspension cells are split 24 hours prior to drug treatment in order to bring the cultures into the log phase of growth. On the day of the assay the cells are plated directly into the Daughter Plates at the appropriate pre-determined seeding density (Table 1) in 90 μl volumes, the concentration of the test compounds thus being reduced to 10 μM. Cells are plated in all wells apart from those in Column 12 which contain 901 normal culture medium alone. The plates are incubated for 72 h at 37° C. and 5% CO2 after which time they are assayed by Alamar Blue as per the preceding example.
(§7) The figures appearing in the columns are the percentage kill achieved by that compound at 10 μM.
Work on c1ccc(-c2cnn3c(NCc4ccccn4)ccnc23)cc1 [Compound 5] yielded an inhibition at 10 µM of 61%.
Fc1ccccc1-c1cnn2c(NCc3ccccn3)ccnc12 [Compound 6] gave an inhibition at 10 µM of 59%.
In the case of CN(C)c1cccc(-c2cnn3c(NCc4ccccn4)ccnc23)c1 [Compound 7], the inhibition at 10 µM is reported as 53%.

Same assay, conditions: Homo sapiens; compound at 10 μM, 72 h; plus GMCSF; read-out: percentage kill, FRAT2+
With c1ccc(-c2cnn3c(NCc4ccccn4)ccnc23)cc1 [Compound 5] the inhibition at 10 µM was 42%.
Compound Fc1ccccc1-c1cnn2c(NCc3ccccn3)ccnc12 [Compound 6] has an inhibition at 10 µM of 33%.
For CN(C)c1cccc(-c2cnn3c(NCc4ccccn4)ccnc23)c1 [Compound 7], the inhibition at 10 µM was 27%.

What follows are compounds tested on C9M-TF1 cells in the same assay as above. Settings: Homo sapiens, 72 h, compound at 10 μM, first C9M column, read-out: percentage kill, C9M.
Assay type: cell-based
Description: as §4, §5, §6, §7
Work on c1ccc(-c2cnn3c(NCc4ccccn4)ccnc23)cc1 [Compound 5] yielded an inhibition at 10 µM of 1%.
Work on Fc1ccccc1-c1cnn2c(NCc3ccccn3)ccnc12 [Compound 6] yielded an inhibition at 10 µM of -1%.
CN(C)c1cccc(-c2cnn3c(NCc4ccccn4)ccnc23)c1 [Compound 7] showed an inhibition at 10 µM of 9%.

Same assay, conditions: Homo sapiens, 72 h, compound at 10 μM, second C9M column, read-out: percentage kill, C9M
Work on c1ccc(-c2cnn3c(NCc4ccccn4)ccnc23)cc1 [Compound 5] yielded an inhibition at 10 µM of -11%.
Fc1ccccc1-c1cnn2c(NCc3ccccn3)ccnc12 [Compound 6] gave an inhibition at 10 µM of -11%.
Work on CN(C)c1cccc(-c2cnn3c(NCc4ccccn4)ccnc23)c1 [Compound 7] yielded an inhibition at 10 µM of 23%.

What follows are compounds tested on colon cancer cell line HT29 (assay: EC50 titration, Alamar Blue, adherent cells). Settings: Homo sapiens, HT-29, 72 h.
Assay type: cell-based
Description: as §1
(§8) For adherent cell lines plated 24 hours previously, a 90 μl volume of the appropriate cell culture medium is then added to each well of the Titration Plates and mixed by repeated aspiration/dispensing, thus taking the compounds to their final test concentration. Once the Titration Plates have been prepared the media is removed from all wells of the cell culture plate and the contents of the Titration Plates are then transferred to the appropriate wells of their relevant Test Plates and incubated for 72 h at 37° C. and 5% CO2 after which time they are assayed by Alamar Blue. Using a combination of Microsoft Excel and Graph Pad Prism, EC50s are determined.
as §3
Work on c1ccc(-c2cnn3c(NCc4ccccn4)ccnc23)cc1 [Compound 5] yielded an EC50 of 1.58 µM.
In the case of Fc1ccccc1-c1cnn2c(NCc3ccccn3)ccnc12 [Compound 6], the EC50 is reported as 1.41 µM.
CN(C)c1cccc(-c2cnn3c(NCc4ccccn4)ccnc23)c1 [Compound 7] was tested, and the EC50 was 4.07 µM.

These compounds were tested on breast cancer cell line MCF7 (assay: EC50 titration, Alamar Blue, adherent cells). Settings: Homo sapiens, 72 h.
Assay type: cell-based
Description: as §1, §8, §3
For c1ccc(-c2cnn3c(NCc4ccccn4)ccnc23)cc1 [Compound 5], the EC50 was 1.51 µM.
Fc1ccccc1-c1cnn2c(NCc3ccccn3)ccnc12 [Compound 6] gave an EC50 of 1.32 µM.
CN(C)c1cccc(-c2cnn3c(NCc4ccccn4)ccnc23)c1 [Compound 7] was tested, and the EC50 was 2.34 µM.

The compounds below were run on non-transformed breast cell line MCF10A (assay: EC50 titration, Alamar Blue, adherent cells). Settings: Homo sapiens, MCF-10A, 72 h.
Assay type: cell-based
Description: as §1, §8, §3
For c1ccc(-c2cnn3c(NCc4ccccn4)ccnc23)cc1 [Compound 5], the EC50 was 12.9 µM.
Fc1ccccc1-c1cnn2c(NCc3ccccn3)ccnc12 [Compound 6] was tested, and the EC50 was 23.4 µM.
With CN(C)c1cccc(-c2cnn3c(NCc4ccccn4)ccnc23)c1 [Compound 7] the EC50 was 11.5 µM.

These compounds were tested on CACO2 Colon adenocarcinoma (assay: Primary high-throughput screen, Alamar Blue, adherent cells). Settings: Homo sapiens, Caco-2; compound at 10 μM, 72 h; read-out: percentage kill, CAC02.
Assay type: cell-based
Description: (§9) Adherent cells are plated at a pre-determined seeding density (Table 1) in flat-bottom 96 well plates 24 hours prior to drug treatment. The cell lines are plated in 100 μl volumes in each well. Cells are plated in all wells apart from those in Column 12 which contain 100 μL normal culture medium alone. These plates will be known as the Test Plates. The Test Plates are labelled with a Daughter Plate ID.
as §4, §5, §7
With c1ccc(-c2cnn3c(NCc4ccccn4)ccnc23)cc1 [Compound 5] the inhibition at 10 µM was 78%.
In the case of Fc1ccccc1-c1cnn2c(NCc3ccccn3)ccnc12 [Compound 6], the inhibition at 10 µM is reported as 37%.
With CN(C)c1cccc(-c2cnn3c(NCc4ccccn4)ccnc23)c1 [Compound 7] the inhibition at 10 µM was 32%.

These compounds were tested on U1810 Non Small Cell Lung Carcinoma in the same assay as above. Settings: U-1810; compound at 10 μM, 72 h; read-out: percentage kill, U1810.
Assay type: cell-based
Description: as §9, §4, §5, §7
c1ccc(-c2cnn3c(NCc4ccccn4)ccnc23)cc1 [Compound 5] was tested, and the inhibition at 10 µM was 24%.
For Fc1ccccc1-c1cnn2c(NCc3ccccn3)ccnc12 [Compound 6], the inhibition at 10 µM was 11%.
Work on CN(C)c1cccc(-c2cnn3c(NCc4ccccn4)ccnc23)c1 [Compound 7] yielded an inhibition at 10 µM of 18%.

What follows are compounds tested on A549 Non Small Cell Lung Carcinoma in the same assay as above. Settings: Homo sapiens, compound at 10 μM, 72 h, read-out: percentage kill, A549.
Assay type: cell-based
Description: as §9, §4, §5, §7
Compound c1ccc(-c2cnn3c(NCc4ccccn4)ccnc23)cc1 [Compound 5] has an inhibition at 10 µM of 10%.
Fc1ccccc1-c1cnn2c(NCc3ccccn3)ccnc12 [Compound 6] showed an inhibition at 10 µM of 6%.
CN(C)c1cccc(-c2cnn3c(NCc4ccccn4)ccnc23)c1 [Compound 7] showed an inhibition at 10 µM of 5%.

Each compound was assayed on PC3 Prostate carcinoma (bone metastasis) in the same assay as above. Settings: compound at 10 μM, 72 h; read-out: percentage kill, PC3.
Assay type: cell-based
Description: as §9, §4, §5, §7
c1ccc(-c2cnn3c(NCc4ccccn4)ccnc23)cc1 [Compound 5] gave an inhibition at 10 µM of -92%.
Work on Fc1ccccc1-c1cnn2c(NCc3ccccn3)ccnc12 [Compound 6] yielded an inhibition at 10 µM of -94%.
With CN(C)c1cccc(-c2cnn3c(NCc4ccccn4)ccnc23)c1 [Compound 7] the inhibition at 10 µM was -16%.

What follows are compounds tested on LS123 Colon adenocarcinoma (Dukes' type B) in the same assay as above. Settings: Homo sapiens, LS-123; compound at 10 μM, 72 h; read-out: percentage kill, LS123.
Assay type: cell-based
Description: as §9, §4, §5, §7
Compound c1ccc(-c2cnn3c(NCc4ccccn4)ccnc23)cc1 [Compound 5] has an inhibition at 10 µM of 87%.
Fc1ccccc1-c1cnn2c(NCc3ccccn3)ccnc12 [Compound 6] gave an inhibition at 10 µM of 72%.
CN(C)c1cccc(-c2cnn3c(NCc4ccccn4)ccnc23)c1 [Compound 7] was tested, and the inhibition at 10 µM was 82%.

The compounds below were run on NCI ADR RES Breast adenocarcinoma (pleural effusion) in the same assay as above. Settings: Homo sapiens, compound at 10 μM, 72 h, read-out: percentage kill, NCI ADR RES.
Assay type: cell-based
Description: as §9, §4, §5, §7
c1ccc(-c2cnn3c(NCc4ccccn4)ccnc23)cc1 [Compound 5] showed an inhibition at 10 µM of 63%.
In the case of Fc1ccccc1-c1cnn2c(NCc3ccccn3)ccnc12 [Compound 6], the inhibition at 10 µM is reported as 51%.
CN(C)c1cccc(-c2cnn3c(NCc4ccccn4)ccnc23)c1 [Compound 7] was tested, and the inhibition at 10 µM was 63%.

What follows are compounds tested on SW480 Colon adenocarcinoma (Dukes' type B) in the same assay as above. Settings: Homo sapiens, compound at 10 μM, 72 h, read-out: percentage kill, SW480.
Assay type: cell-based
Description: as §9, §4, §5, §7
c1ccc(-c2cnn3c(NCc4ccccn4)ccnc23)cc1 [Compound 5] showed an inhibition at 10 µM of 62%.
For Fc1ccccc1-c1cnn2c(NCc3ccccn3)ccnc12 [Compound 6], the inhibition at 10 µM was 3%.
In the case of CN(C)c1cccc(-c2cnn3c(NCc4ccccn4)ccnc23)c1 [Compound 7], the inhibition at 10 µM is reported as 44%.

These compounds were tested on HT29 Colorectal adenocarcinoma in the same assay as above. Settings: Homo sapiens, HT-29; compound at 10 μM, 72 h; read-out: percentage kill, HT29.
Assay type: cell-based
Description: as §9, §4, §5, §7
Work on c1ccc(-c2cnn3c(NCc4ccccn4)ccnc23)cc1 [Compound 5] yielded an inhibition at 10 µM of 75%.
With Fc1ccccc1-c1cnn2c(NCc3ccccn3)ccnc12 [Compound 6] the inhibition at 10 µM was 20%.
For CN(C)c1cccc(-c2cnn3c(NCc4ccccn4)ccnc23)c1 [Compound 7], the inhibition at 10 µM was 40%.

Each compound was assayed on MCF7 Mammary gland adenocarcinoma in the same assay as above. Settings: Homo sapiens, compound at 10 μM, 72 h, read-out: percentage kill, MCF7.
Assay type: cell-based
Description: as §9, §4, §5, §7
Compound c1ccc(-c2cnn3c(NCc4ccccn4)ccnc23)cc1 [Compound 5] has an inhibition at 10 µM of 87%.
Fc1ccccc1-c1cnn2c(NCc3ccccn3)ccnc12 [Compound 6] was tested, and the inhibition at 10 µM was 64%.
CN(C)c1cccc(-c2cnn3c(NCc4ccccn4)ccnc23)c1 [Compound 7] gave an inhibition at 10 µM of 68%.

Each compound was assayed on FRAT2-C9M-TF1 cells (assay: EC50 titration, Alamar Blue, suspension cells). Settings: Homo sapiens; 72 h, Alamar Blue; absence of growth factor.
Assay type: cell-based, Human
Description: as §1, §2, §3
For c1ccc(-c2cnn3c(NCc4ccccn4)ccnc23)cc1 [Compound 5], the EC50 was 3.63 µM.
Fc1ccccc1-c1cnn2c(NCc3ccccn3)ccnc12 [Compound 6] gave an EC50 of 5.75 µM.
Compound CN(C)c1cccc(-c2cnn3c(NCc4ccccn4)ccnc23)c1 [Compound 7] has an EC50 of 6.61 µM.

Same assay, conditions: Homo sapiens; 72 h, Alamar Blue; presence of growth factor
c1ccc(-c2cnn3c(NCc4ccccn4)ccnc23)cc1 [Compound 5] gave an EC50 of 5.75 µM.
Compound Fc1ccccc1-c1cnn2c(NCc3ccccn3)ccnc12 [Compound 6] has an EC50 of 5.13 µM.
With CN(C)c1cccc(-c2cnn3c(NCc4ccccn4)ccnc23)c1 [Compound 7] the EC50 was 5.01 µM.
